Assay results reported in US20230365516A1, “COMPOUNDS FOR CANCER THERAPY AND IMAGING” (Washington University, priority 2020, published 2023).
“Also recorded” adds a separate entry of the source. Where two headings read alike, the source gives them in different places.

Tests used:
caspase 3/7 = assay: Caspase-Glo3/7 assay in MM.1S cells; format: cell-based, human
Experimental: Apoptosis and caspase activation assays: Caspase3/7 activity was measured using Caspase-Glo3/7 Assay System (Promega). MM.1S cells were seeded in a white 96-well plate at a density of 20000 cells per well. Cells were pretreated with 20 µmol/L PD98059 followed by incubation with 1 µM LS1090 for 4 h at 37° C., 5% CO2 before accessing caspase 3/7 activity. Caspase-Glo3/7 reagent was added directly to the cells and incubated for 30 min before recording luminescence using the Synergy2 plate reader (BioTek). Data were represented as a fold change from the untreated cells control. Kinetics of apoptosis and necrosis was monitored using RealTimeGlo Annexin V Apoptosis and Necrosis Assay (Promega). MM.1S cells were treated with 1 µM LS1090 and incubated in the presence of 100 µL the RealTimeGlo Annexin V Apoptosis and Necrosis reagent at 37° C., 5% CO2. The luminescence and fluorescence signals were monitored for 24 h. Relative luminescence units (RLU) and relative fluorescence units (RFU) were measured at different time points using the Synergy2 plate reader (BioTek).

MM.1S cells [1] = assay: Cell viability assay (CellTiter-Glo), MM.1S cells; format: cell-based, human; settings: for EC50: MM1.S
Experimental: (§1) Cell culture and Reagents: Human MM cell lines MM1.S, U266, and OPM2 were cultured in RPMI-1640 medium supplemented with 10% fetal bovine serum, 100 units/mL penicillin, 100 µg/mL streptomycin at 37° C., 5% CO2. PBMCs were purchased from Lonza Bioscience, USA and maintained overnight in RPMI-1640 medium supplemented with 10% fetal bovine serum, 100 units/mL penicillin, 100 µg/mL streptomycin at 37° C., 5% CO2 before using for experiments. IL-6 and IGF-1 were purchased from R&D Systems. PD98059 was obtained from Cell Signaling Technology. Z-VAD-FMK was purchased from Santa Cruz. Bortezomib was obtained from Sigma. LS1090 [2-((7-nitrobenzo[c][1,2,5]oxadiazol-4-yl)thio)ethyl (3-(trifluoromethyl)phenyl)carbamate] was purchased from MolPort, Inc.M. Maybridge library was purchased from Thermo Fisher Scientific, NeXT Diversity 3500 and Diversity SAR 3500 sets were gifts from NCI.
(§2) Cell viability assay: Twenty thousand MM1.S, U266, OPM2, and PBMCs in 100 µL of growth media were added per well in a 96-well plate. The cells were incubated for 24 h with serial dilutions of LS1090 stock solution (10 mM in DMSO) or BTZ stock solution (1 mM in DMSO). Dilutions were prepared in growth media. Cells viability was assessed using the CellTiter-Glo luminescence-based assay (Promega). After adding 100 µL CellTiter-Glo reagent, relative luminescence units (RLU) were measured using the Synergy2 plate reader (BioTek) and expressed as a percentage of the untreated cell controls.

U266 cells [2] = assay: Cell viability assay (CellTiter-Glo), U266 cells; format: cell-based, human
Experimental: as §1, §2

[3] = tested on: chymotrypsin-like activity of proteasomes; assay: Proteasome-Glo Chymotrypsin-Like activity assay in MM.1S cells; format: cell-based, human
Experimental: Proteasome activity assays: MM.1S cells were seeded in a white 96-well plate at a density of 20000 per well. Cells were treated with 1 µML LS1090 or 100 nM Bz for 4 h before accessing chymotrypsin-like activity using Proteasome-Glo™ Chymotrypsin-Like, (Promega). After adding the Proteasome-Glo™ reagent, luminescence was determined as relative light units (RLU) using the Synergy2 plate reader (BioTek).

[4] = tested on: MM1.S-GFP-Luc disseminated MM xenograft
Excerpt: MM1.S cells stably transfected with GFP-firefly Luciferase (MM1.S-GFP-Luc), when administered intravenously (IV) in Fox Chase SCID beige mice, home to the bone marrow (BM) and are readily detectable by bioluminescence imaging (BLI) after 15-21 days from inoculation. On the third week from tumor inoculation, detecting the presence of the MM lesions in BM in mice with BLI photon flux of 106, we initiated therapy.
The mice were subjected to four dosages of therapy in two days apart over two weeks. The therapy were stopped after four dosages and the tumor progression over time was monitored by in vivo BLI once a week. […] Paralysis or loss of 15% of the original weight were taken as criteria of end point of the mice.
Each treated mouse received two doses per week separated by 3 days over two weeks for a total of four dosages, and BLI was used to monitor tumor progression. […] The endpoint for the study includes paralysis, loss of 20% of the original weight or sudden death due to the tumor burden before any other symptom appeared.
Fox Chase SCID Beige mice (From in house colony) (8-10 weeks old) were implanted with MM1.S cells stably transfected with GFP and CBR Luciferase (MM1.S-GFP-Luc) (2 million cells in 100 µL DPBS per mouse) by tail vein injection. […] The progression of tumor was monitored by whole-body BLI once a week post tumor inoculation. […]

OPM2 cells = assay: Cell viability assay (CellTiter-Glo), OPM2 cells; format: cell-based; settings: OPM-2, human OPM2 cells
Experimental: as §1
Cell viability assay: Twenty thousand MM1.S, U266, OPM2, and PBMCs in 100 µL of growth media were added per well in a 96-well plate. […] Cells viability was assessed using the CellTiter-Glo luminescence-based assay (Promega). After adding 100 µL CellTiter-Glo reagent, relative luminescence units (RLU) were measured using the Synergy2 plate reader (BioTek) and expressed as a percentage of the untreated cell controls.

5TGM1 = assay: Growth inhibition of mouse MM cell line 5TGM1; format: cell-based
PBMCs = assay: Cell viability assay (CellTiter-Glo), nontumor PBMCs; format: cell-based; settings: 24 h incubation, at the EC50/IC50 for MM1.S (0.49 µM) and higher
Experimental: Cell culture and Reagents: Human MM cell lines MM1.S, U266, and OPM2 were cultured in RPMI-1640 medium supplemented with 10% fetal bovine serum, 100 units/mL penicillin, 100 µg/mL streptomycin at 37° C., 5% CO2. PBMCs were purchased from Lonza Bioscience, USA and maintained overnight in RPMI-1640 medium supplemented with 10% fetal bovine serum, 100 units/mL penicillin, 100 µg/mL streptomycin at 37° C., 5% CO2 before using for experiments. […] Bortezomib was obtained from Sigma.

MM.1S cells [5] = assay: RealTime-Glo Annexin V Apoptosis and Necrosis Assay, MM.1S cells; format: cell-based, human
Excerpt: LS1090 activates ERK1/2 to induce apoptosis in MM cells via a p53-independent pathway: Chemotherapeutics exert their effects via multiple cell death pathways, including apoptosis and necrosis. To determine the dominant mechanism of LS1090-induced MM cell death, RealTime-Glo Annexin V Apoptosis and Necrosis Assay were used, which report both pathways simultaneously. The method reports apoptosis by detecting phosphatidylserine on the outer leaflet of cell membranes and necrosis by measuring plasma membrane integrity. […] This delayed necrosis onset points to a cell death mechanism where pro-apoptosis induction transforms into secondary necrosis when phagocytes are not available to remove apoptotic cells.
Apoptosis and caspase activation assays: Caspase3/7 activity was measured using Caspase-Glo3/7 Assay System (Promega). MM.1S cells were seeded in a white 96-well plate at a density of 20000 cells per well. […] Caspase-Glo3/7 reagent was added directly to the cells and incubated for 30 min before recording luminescence using the Synergy2 plate reader (BioTek). […] Kinetics of apoptosis and necrosis was monitored using RealTimeGlo Annexin V Apoptosis and Necrosis Assay (Promega). […] The luminescence and fluorescence signals were monitored for 24 h. Relative luminescence units (RLU) and relative fluorescence units (RFU) were measured at different time points using the Synergy2 plate reader (BioTek).

U266 cells [6] = assay: RealTime-Glo Annexin V Apoptosis and Necrosis Assay, U266 cells; format: cell-based, human; settings: monitored 24 h
ERK1/2 = assay: Western blot of ERK1/2 activation in MM.1S cells; format: cell-based, human
Experimental: ERK1/2 signaling plays an essential role in the cascade of apoptosis-mediated cell death. To interrogate its involvement, MM.1S cells were treated with LS1090 and Western blots used to determine ERK1/2 activation. […] Given that ERK1/2 signaling can utilize caspase-dependent or independent pathways to induce apoptosis, LS1090 mediated activation of caspase 3/7 in MM.1S cells was examined in the presence or absence of ERK1/2 activation inhibitor, PD98059. […] The consequential effect of caspase 3/7 activation on cell death was further validated by determining the viability of LS1090-treated MM1.S cells in the presence or absence of the caspase inhibitor, Z-VAD-fmk.
Cell extract preparation and Western blotting: Protein extracts were prepared by washing cells with PBS (pH 7.4) and suspending in RIPA lysis buffer (20 mM Tris-HCI (pH 7.5), 150 mM NaCl, 1 mM Na2EDTA, 1 mM EGTA, 1% NP-40) containing protease and phosphatase inhibitors (Sigma). Equal amounts of protein, as determined by the BCA protein assay (Thermo Fisher Scientific), were subjected to SDS-PAGE (12% gels; Bio-Rad), followed by transfer to nitrocellulose membrane. […]

p53 = assay: Western blot of p53 expression in MM.1S cells; format: cell-based, human
Experimental: (§3) ERK is known to exert its pro-apoptotic function by upregulating p53 and downregulating Bcl-2 expression. […] In contrast, the expression of pro-apoptotic protein, Bax, increased within 1 h post-treatment (FIG. 5H).
(§4) Cell extract preparation and Western blotting: Protein extracts were prepared by washing cells with PBS (pH 7.4) and suspending in RIPA lysis buffer (20 mM Tris-HCI (pH 7.5), 150 mM NaCl, 1 mM Na2EDTA, 1 mM EGTA, 1% NP-40) containing protease and phosphatase inhibitors (Sigma). Equal amounts of protein, as determined by the BCA protein assay (Thermo Fisher Scientific), were subjected to SDS-PAGE (12% gels; Bio-Rad), followed by transfer to nitrocellulose membrane. Membrane were incubated with 1:1000 anti-ERK1/2 (Thr202/Tyr204, anti-phosphoERK1/2 (Thr202/Tyr204), anti-p53, anti-Bcl2, anti-Bax (Cell Signaling Technology) and anti-βActin (Santa Cruz). Secondary antibodies consisted of horseradish peroxidase-conjugated goat anti-rabbit IgG or goat anti-mouse IgG (Sigma). Detection was done by the enhanced chemiluminescence method (Thermo Fisher Scientific).

Bcl-2 = assay: Western blot of Bcl-2 expression in MM.1S cells; format: cell-based, human
Experimental: as §3, §4

Bax = assay: Western blot of Bax expression in MM.1S cells; format: cell-based, human
Experimental: as §3, §4

[7] = tested on: IGR Cap1, HT1080, and MDA MB231; assay: Viability of selected cancer cell lines after 24 h with LS1090; format: cell-based; settings: 1 µM LS1090, 24 h
Experimental: Cells were treated with LS1090 for 24h, followed by assessment of viability using CellTitler-Glow assay. n=4 for each condition.
Additionally, the viability of selected cancer cell lines were evaluated (IGR Cap1, HT1080, and MDA MB231) after 24 h incubation with LS1090 (see, e.g. FIGS. 9-11).

In the case of COc1cccc(-c2cc(=O)c3ccccc3o2)c1N [PD98059, reference compound], the “LS1090-triggered caspase 3/7 activity in the presence of PD98059” value (caspase 3/7; MM.1S cells pretreated with 20 µmol/L PD98059, then 1 µM LS1090 4 h) is reported as “inhibited”.

For Z-VAD-fmk [reference compound], the “LS1090-induced cell death on co-incubation with Z-VAD-fmk” value (MM.1S cells [1]; MM1.S cells, p< 0.0001) was “inhibited this event”.

In the case of CC(C)C[C@H](NC(=O)[C@H](Cc1ccccc1)NC(=O)c1cnccn1)B(O)O [BTZ, Bortezomib, reference compound], the EC50 (MM.1S cells [1]; Homo sapiens, MM.1S cells, read-out: EC50 of BTZ alone) is reported as 0.002 µM, the “EC50 of BTZ with increasing concentration ratio of LS1090 to BTZ” value (MM.1S cells [1]; MM.1S cells, in combination with LS1090) is reported as 0.0014 µM and the “sensitivity of U266 cells to BTZ relative to MM.1S cells (less sensitive)” value (U266 cells [2]; U266 versus MM.1S) is reported as 10 fold. The “chymotrypsin-like activity in MM.1S cells, BTZ” value ([3]; 0.1 µM, 4 h) was “efficiently inhibits”, the “course of disease, BTZ” value ([4]; 0.5 mg/kg or 1.0 mg/kg IP, same regimen) was “experienced early remission and relapsed after 6-week post-inoculation” and the “toxicity of BTZ dose over 1 mg/Kg” value ([4]; BTZ over 1 mg/Kg IP) was “lethal effect on mice after the second dose”.

In the case of O=C(Nc1cccc(C(F)(F)F)c1)OCCSc1ccc([N+](=O)[O-])c2nonc12 [LS1090, 2-((7-nitrobenzo[c][1,2,5]oxadiazol-4-yl)thio)ethyl (3-(trifluoromethyl)phenyl)carbamate], the cells eradicated (MM.1S cells [1]; LS1090-treated MM1.S cells, absence of Z-VAD-fmk) is reported as 60%, the EC50 (MM.1S cells [1]; human MM.1S cells, 24 h, read-out: EC50, MM.1S) is reported as 0.49 µM and the “cytotoxicity in the presence of recombinant IL-6 or IGF-1” value (MM.1S cells [1]; MM.1S cells, 24 h) is reported as “neither recombinant IL-6 nor IGF-1 blocked”. For the same compound, the IC50 (MM.1S cells [1]; human MM1.S cells) was 0.49 µM, the IC50 (OPM2 cells) was 0.49 µM and the EC50 (OPM2 cells; 24 h) was 0.49 µM. For the same compound, the cytotoxicity at 1 µM (U266 cells [2]; Homo sapiens, U-266, 1 µM LS1090, read-out: decrease of viability of U266 cells) was 55%, the IC50 (U266 cells [2]; U-266, human U266 cells) was 0.44 µM and the EC50 (U266 cells [2]; U-266, human U266 cells, 24 h) was 0.44 µM. For the same compound, the IC50 (5TGM1; 5TGM1, mouse MM cell line 5TGM) was 0.32 µM, the EC50 (5TGM1; mouse MM cell line 5TGM1) was 0.32 µM and the “cytotoxicity on PBMCs” value (PBMCs) was “significant toxic effect; also recorded: significant cytotoxicity”. For the same compound, the “time of apoptosis peak post-treatment” value (MM.1S cells [5]; MM cells treated with LS1090 (1 µM)) was “about 10 h”, the apoptosis-necrosis time pattern (MM.1S cells [5]; MM.1S cells, monitored 24 h) was “necrosis lagged apoptosis” and the apoptosis-necrosis time pattern (U266 cells [6]) was “same apoptosis-necrosis pattern”. For the same compound, the “duration of activated ERK1/2 state” value (ERK1/2) was “sustained over 3 h”, the “time to ERK1/2 phosphorylation post-treatment” value (ERK1/2) was “less than 1 h” and the “increase in caspase 3/7 activity” value (caspase 3/7; MM.1S cells, 1 µM LS1090, 4 h incubation, fold change from untreated cells) was “over seven-fold increase”. For the same compound, the “p53 expression after treatment” value (p53) was “lack of p53 enhancement”, the “Bcl-2 expression after treatment” value (Bcl-2) was “did not downregulate” and the “time to increased Bax expression post-treatment” value (Bax) was no more than 1 h. For the same compound, the “chymotrypsin-like activity in MM.1S cells, LS1090” value ([3]; 4 h incubation at ten-fold the concentration of BTZ) was “did not significantly perturb” and the “effect on viability of selected cancer cell lines” value [7] was “had an effect on all tested cancer cell lines”.
